Several values for one entry are separate records, joined by “and”; a condition that tells them apart may be missing. Equal values may be shown once.
Experiments:
Conditions in all cases: in vivo
[1] = system: three grassy weeds (wild oat, watergrass, foxtail); design: species or system Avena fatua, Echinochloa crusgalli, Setaria viridis
[2] = system: three broadleaf weeds (morning glory, mustard, velvetleaf); design: species or system Ipomoea purpurea, Brassica kaber, Abutilon theophrasti
[3] = system: three grassy weeds (wild oat, watergrass, foxtail); design: species or system Avena fatua, Echinochloa crusgalli, Setaria viridis; remark: listed apart in the source
yellow nutsedge [4] = system: yellow nutsedge; design: species or system Cyperus esculentus
yellow nutsedge [5] = system: yellow nutsedge; design: species or system Cyperus esculentus; remark: listed apart in the source
[6] = system: three broadleaf weeds (morning glory, mustard, velvetleaf); design: species or system Ipomoea purpurea, Brassica kaber, Abutilon theophrasti; remark: listed apart in the source

Structure (SMILES): CCCCN(c1ccccc1)P(=O)(SCCC)N(CCC)CCC (stereo not drawn) [Compound 24]
- % Control, Post-emergence, GR avg. [1]: 30% and 23%
- % Control, Post-emergence, BL avg. [2]: 80% and 73%
- % Control, Pre-emergence, GR avg. [3]: 0%
- % Control, Post-emergence, NS (yellow nutsedge [4]): 10% and 0%
- % Control, Pre-emergence, NS (yellow nutsedge [5]): 0%
- % Control, Pre-emergence, BL avg. [6]: 33%

Source: patent US5189169A (priority 1991, dated 1993)
